In paper PMC6933707, “Palmitoylethanolamide counteracts substance P-induced mast cell activation in vitro by stimulating diacylglycerol lipase activity” (Journal of Neuroinflammation, 2019):
pKi: −log10 of the molar value.

Experiments:
RBL-2H3 cells [1] = assay: Toluidine blue staining, percentage of degranulation; type: cell-based, rat
Method: SP-stimulated RBL-2H3 cells [plated on poly-L-lysine (33 μg/ml) coated slides (Deckglaser, 21 × 26 mm) into 6-well culture dishes at a cell density of 9 × 10^5 cells per well] were treated and incubated as described above for histamine release assay. After 15 min, the cells were fixed with paraformaldehyde at 4% for 20 min and incubated for 3 min with toluidine blue at 0.01% in 3% acetic acid. Subsequently, a 5 min wash in distilled water and dehydration in increasing alcohols (90%, 100%) were performed. Cells were then clarified by treatment with Xylol for 5 min and finally dried slides were mounted with the DPX histogram upright. The cells were observed using a Leica DMI6000 digital microscope, acquired using the Leica DFC 340FX digital camera connected to the microscope and analyzed using the LAS AF 2.2.0 software. Degranulated RBL-2H3 cells were counted and the percentage of degranulation (based on the number of colorable cells) was calculated.

RBL-2H3 cells [2] = assay: β-Hexosaminidase release assay; type: cell-based, rat; conditions: 15 min
Method: RBL-2H3 cells were plated into 24-well culture dishes at a cell density of 2 × 10^5 cells per well, or into 6-well culture dishes at a cell density of 9 × 10^5 cells per well, for 1 day at 37 °C in 5% CO2 atmosphere. After 1 day, RBL-2H3 cells were stimulated with SP (10 μM) or vehicle (water) and incubated for 15 min at 37 °C in 5% CO2 atmosphere.
SP-stimulated RBL-2H3 cells (2 × 10^5 cells/well) were treated with PEA (0.1, 0.5, 1, and 10 μM) or vehicle (methanol, max 0.1%) for 15 min at 37 °C in 5% CO2 atmosphere. After 15 min, the supernatants (15 μl) were transferred to 96-well plates and incubated with 60 μl of substrate (1 mM p-nitrophenyl-N-acetyl-β-D-glucosaminide in citrate 0.05 M, pH 4.5) for 1 h at 37 °C. To determine the total amount of released β-hexosaminidase, the cells were lysed with 0.1% Triton X-100 and incubated with substrate using the same procedure as for the determination of the activity in the supernatants. The reaction was stopped by adding 150 μl of 0.1 M sodium bicarbonate buffer (pH 10.0), and the reaction product was monitored by measuring the optical density (OD) at 405 nm by using a reader GENios Pro (Tecan). The results were expressed as % of the total β-hexosaminidase content of the cells determined by cell lysis with 0.1% Triton X-100, and calculated by using the following formula: % degranulation = [ODsupernatant/(ODsupernatant + ODtriton x−100)] × 100.

MGL = MGL enzyme activity assay (COS-7 cytosolic fractions); type: biochemical; conditions: up to 25 μM
Method: The 10,000×g cytosolic fractions obtained from COS-7 cells (100 μg of protein) were incubated with 2-arachidonoyl-[^3H]-glycerol (40 Ci/mmol, St. Louis, MO, USA) diluted with non-radiolabeled 2-AG (20 μM) in the presence of vehicle or increasing concentrations of PEA (0.1-25 μM), in Tris-HCl 50 mM pH 7.4 at 37 °C for 20 min [42]. After the incubation, the amounts of [^3H]-glycerol were measured in the aqueous phase [after extraction of the incubation mixture with 2 volumes of CHCl3/CH3OH (1:1, v/v)] by using Liquid Scintillation Analyzer (TRI-carb 2100TR).

DAGL-β = target: T1, DAGL-β (Rattus norvegicus, UniProt P0C1S9); assay: DAGL-β enzyme activity assay (RBL-2H3 cell membranes); type: biochemical; conditions: 25 μM
T1 construct: constitutive DAGL-β activity in RBL-2H3 cell membranes; endogenous in cells; host or cells: RBL-2H3
T1 sequence (P0C1S9 1-668): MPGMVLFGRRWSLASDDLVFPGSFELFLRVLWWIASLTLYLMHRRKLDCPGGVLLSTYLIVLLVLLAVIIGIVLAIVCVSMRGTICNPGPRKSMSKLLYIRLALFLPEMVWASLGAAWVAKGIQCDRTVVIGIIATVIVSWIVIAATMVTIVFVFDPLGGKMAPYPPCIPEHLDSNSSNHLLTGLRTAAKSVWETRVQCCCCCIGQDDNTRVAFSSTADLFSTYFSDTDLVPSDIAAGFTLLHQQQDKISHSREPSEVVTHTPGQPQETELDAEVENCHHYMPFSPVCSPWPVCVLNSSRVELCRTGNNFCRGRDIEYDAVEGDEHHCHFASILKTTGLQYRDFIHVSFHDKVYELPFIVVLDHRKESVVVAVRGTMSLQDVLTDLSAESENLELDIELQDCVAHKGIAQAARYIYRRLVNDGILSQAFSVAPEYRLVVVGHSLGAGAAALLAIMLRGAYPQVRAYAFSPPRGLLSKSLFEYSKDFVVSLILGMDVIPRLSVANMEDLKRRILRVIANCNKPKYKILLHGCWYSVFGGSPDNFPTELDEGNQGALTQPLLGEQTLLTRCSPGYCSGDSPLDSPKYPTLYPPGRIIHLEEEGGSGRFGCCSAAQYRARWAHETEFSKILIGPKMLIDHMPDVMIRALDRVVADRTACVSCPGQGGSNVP
Method: DAGL-β enzyme activity was assessed by using membrane preparations (100 μg of protein) obtained from RBL-2H3 cells, and 1-[^14C]oleoyl-2-arachidonoylglycerol (1.0 mCi/mmol, 50 μM, [40, 41]), as substrate in the presence of vehicle or increasing concentrations of PEA (1–25 μM) in Tris-HCl 50 mM pH 7.4 or in Tris-HCl 50 mM pH 7.4 and CaCl2 10 mM. After the incubation (20 min at 37 °C), the protocol followed the same procedures as above reported for DAGL-α enzyme activity assay. Data were expressed as % of activity of DAGL-β.

human CB2 receptor = human CB2 receptor (Homo sapiens, UniProt P34972); assay: Competition binding assay for CB2 receptors ([3H]-CP-55,940 displacement); set-up: purchased Perkin Elmer; host or cells: HEK-293
From the text: Data were expressed as Ki (μM) and calculated by applying the Cheng-Prusoff equation to the IC50 values for the displacement of the bound radioligand.

Chain of human CB2 receptor (P34972 whole entry): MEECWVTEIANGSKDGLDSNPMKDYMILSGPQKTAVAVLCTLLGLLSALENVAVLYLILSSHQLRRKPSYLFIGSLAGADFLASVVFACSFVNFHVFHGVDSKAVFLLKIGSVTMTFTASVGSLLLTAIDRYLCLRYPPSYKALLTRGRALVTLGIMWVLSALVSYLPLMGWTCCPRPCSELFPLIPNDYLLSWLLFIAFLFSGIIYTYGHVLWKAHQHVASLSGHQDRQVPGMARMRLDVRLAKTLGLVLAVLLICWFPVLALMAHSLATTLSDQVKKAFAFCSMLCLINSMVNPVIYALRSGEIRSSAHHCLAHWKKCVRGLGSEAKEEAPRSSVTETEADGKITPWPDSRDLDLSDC

**Q.** Which results are given for `CCCCCCCCCCCCCCCC(=O)NCCO` [PEA, Palmitoylethanolamide]?
**A.** number of degranulated cells (RBL-2H3 cells [1]; SP (10 μM)-stimulated cells, compound 0.1 μM, 15 min, vs SP + vehicle): comparable; number of degranulated cells (RBL-2H3 cells [1]; SP (10 μM)-stimulated cells, compound 10 μM, 15 min, vs SP + vehicle): reduced the number of SP-degranulated RBL-2H3 cells; number of degranulated cells (RBL-2H3 cells [1]; SP-stimulated cells co-treated with PEA 0.1 μM and 2-AG 0.1 μM, 15 min): able to reduce; number of degranulated cells (RBL-2H3 cells [1]; SP-stimulated cells co-treated with PEA 10 μM and AM630 0.1 μM, vs SP + vehicle or SP + AM630): comparable; number of degranulated cells (RBL-2H3 cells [1]; substance alone 10 μM, 15 min, vs vehicle): no effect; β-hexosaminidase release (RBL-2H3 cells [2]; SP (10 μM)-stimulated cells, PEA 0.1, 0.5, 1 and 10 μM, concentration-dependent, vs SP + vehicle): strongly reduced; β-hexosaminidase release (RBL-2H3 cells [2]; substance alone 10 μM, vs vehicle-treated cells): No effect; inhibitory effect on MGL activity (MGL): no inhibitory effect; maximal % inhibition of MGL activity (MGL): < 5%; stimulation of the activity of DAGL-β (DAGL-β): 33 ± 5.43%; [3H]-CP55,940 displacement (human CB2 receptor; PEA 10 μM per se, WIN55,212-2 10 μM = 100% displacement): 33.51 ± 5.28%; pKi (human CB2 receptor; compound alone, displacement of [3H]-CP-55,940, HEK-293 membranes, 90 min 30 °C): < 5.00
